Data as given in patent US11109593B2, “Isoxazolin-5-one derivative and herbicide containing same as active ingredient” (HOKKO CHEMICAL INDUSTRY CO., LTD., priority 2017, dated 2021).

Legend:
Format in all cases: in vivo
Chenopodium album [1] = assay: Test Example 4: herbicidal effect test by treatment of leave and stem in dry field farming (seven days after seeding); conditions: 120 g/10a active ingredient, emulsion sprayed seven days after seeding, evaluated 14 days after treatment
Summary of the method: (§1)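 Duplicate pots were scored 14 days post-spray by dry weight, herbicidal rate = {1 − treated/untreated average dry weight} × 100. The water-diluted emulsion, equivalent to 120 g active ingredient per 10 ares in 100 L, was applied seven days after sowing 20 seeds each into the upper 1 cm of alluvial soil.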

Amaranthus viridis [2] = assay: as above; conditions: 120 g/10a active ingredient, emulsion sprayed seven days after seeding, evaluated 14 days after treatment
Summary of the method: as §1

Echinochloa crus-galli [3] = assay: as above; conditions: 120 g/10a active ingredient, emulsion sprayed seven days after seeding, evaluated 14 days after treatment
Summary of the method: as §1

southern crabgrass [4] = assay: as above; conditions: 120 g/10a active ingredient, emulsion sprayed seven days after seeding, evaluated 14 days after treatment
Summary of the method: as §1

[5] = tested on: broad leaf weeds (Lindernia pyxidaria and Monochoria vaginalis); assay: Test Example 1: herbicidal effect test by treatment of rice paddy soil (immediately after seeding); conditions: 120 g/10a active ingredient, dry weight vs untreated area, 14 days after treatment; for pest or weed control at 1200 g/ha: 336 h
Summary of the method: (§2)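 Pre-emergence paddy water application, 120 g a.i./10 ares, applied immediately post-seeding into ~3 cm flood; glasshouse; duplicate pots; dry weight at 14 d → % inhibition = (1 − treated/untreated) × 100.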

Scirpus juncoides [6] = assay: as above; conditions: 120 g/10a active ingredient, dry weight vs untreated area, 14 days after treatment
Summary of the method: as §2

Echinochloa crus-galli [7] = assay: as above; conditions: 120 g/10a active ingredient, dry weight vs untreated area, 14 days after treatment
Summary of the method: as §2

Chenopodium album [8] = assay: Test Example 3: herbicidal effect test by treatment of dry field farming soil (one day after seeding); conditions: 120 g/10a active ingredient, evaluated 14 days after treatment
Summary of the method: (§3)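 Alluvial dry-field soil in pots, top 1 cm mixed with 20 seeds per weed species. One day after seeding, the water-diluted emulsion was sprayed onto the soil surface at 100 L per 10 ares (120 g active ingredient per 10 ares). Duplicate pots; herbicidal rate (%) from plant dry weight versus untreated, 14 days after treatment.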

Amaranthus viridis [9] = assay: as above; conditions: 120 g/10a active ingredient, evaluated 14 days after treatment
Summary of the method: as §3

Echinochloa crus-galli [10] = assay: as above; conditions: 120 g/10a active ingredient, evaluated 14 days after treatment
Summary of the method: as §3

southern crabgrass [11] = assay: as above; conditions: 120 g/10a active ingredient, evaluated 14 days after treatment
Summary of the method: as §3

[12] = tested on: broad leaf weeds (Lindernia pyxidaria and Monochoria vaginalis); assay: Test Example 2: herbicidal effect test by treatment during growing period in paddy rice cultivation (seven days after seeding); conditions: 120 g/10a active ingredient, assessed 14 days after treatment, dry weight vs untreated area; for pest or weed control at 1200 g/ha: 336 h
Summary of the method: (§4)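 Seeds sown 0–1 cm deep in puddled, fertilised paddy soil with about 3 cm standing water in a glass greenhouse. Diluted emulsion dropped into the water seven days after seeding at 120 g active ingredient per 10 ares. Herbicidal rate (%) from mean dry weight vs untreated, duplicate, 14 days after treatment.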

Scirpus juncoides [13] = assay: as above; conditions: 120 g/10a active ingredient, assessed 14 days after treatment, dry weight vs untreated area
Summary of the method: as §4

Echinochloa crus-galli [14] = assay: as above; conditions: 120 g/10a active ingredient, assessed 14 days after treatment, dry weight vs untreated area
Summary of the method: as §4

Row | SMILES | herbicidal effect (herbicidal rate), Chenopodium album (Chenopodium album [1]) | herbicidal effect (herbicidal rate), Amaranthus viridis (Amaranthus viridis [2]) | herbicidal effect (herbicidal rate), Echinochloa crus-galli (Echinochloa crus-galli [3]) | herbicidal effect (herbicidal rate), southern crabgrass (southern crabgrass [4]) | Herbicidal rate (%) Lindernia pyxidaria ([5]; Lindernia pyxidaria) | Herbicidal rate (%) Monochoria vaginalis ([5]; Monochoria vaginalis) | Herbicidal rate (%) Scirpus juncoides (Scirpus juncoides [6]) | Herbicidal rate (%) Echinochloa crus-galli (Echinochloa crus-galli [7]) | herbicidal rate, Chenopodium album (Chenopodium album [8]) | herbicidal rate, Amaranthus viridis (Amaranthus viridis [9]) | herbicidal rate, Echinochloa crus-galli (Echinochloa crus-galli [10]) | herbicidal rate, southern crabgrass (southern crabgrass [11]) | Herbicidal rate (%) Lindernia pyxidaria ([12]; Lindernia pyxidaria) | Herbicidal rate (%) Monochoria vaginalis ([12]; Monochoria vaginalis) | Herbicidal rate (%) Scirpus juncoides (Scirpus juncoides [13]) | Herbicidal rate (%) Echinochloa crus-galli (Echinochloa crus-galli [14]) | other results
1 | Cc1c(Cc2ccccc2NS(=O)(=O)C(F)(F)F)c(=O)on1C1CCc2ccccc21 (centres unmarked) [Compound 1-222] | 50% | 40% | 70% | 80% | 90% | 90% | 90% | 100% | 100% | 100% | 100% | 100% | 90% | 90% | 90% | 90% | 
2 | Cc1c(Cc2ccccc2N(C(=O)Oc2ccccc2)S(=O)(=O)C(F)(F)F)c(=O)on1C(C)(C)C [Compound 1-762] | 40% | 40% | 90% | 90% | 90% | 90% | 90% | 90% | 90% | 90% | 90% | 90% | 90% | 90% | 90% | 90% | 
3 | Cc1c(Cc2ccccc2N(S(=O)(=O)C(F)(F)F)S(=O)(=O)C(F)(F)F)c(=O)on1C(C)Cc1ccccc1 (centres unmarked) [Compound 1-1045] | 0% | 60% | 90% | 40% | 90% | 80% | 90% | 100% | 40% | 40% | 90% | 50% | 60% | 90% | 90% | 90% | 
4 | CCC(C)n1oc(=O)c(Cc2ccccc2NS(=O)(=O)C(F)(F)F)c1C (centres unmarked) [Compound 1-102, 1,1,1-trifluoro-N-[2-[(3-methyl-5-oxo-2-sec-butyl-isoxazol-4-yl)methyl]phenyl]methanesulfonamide] |  |  |  |  |  |  |  |  |  |  |  |  |  |  |  |  | pest or weed control at 1200 g/ha (Chenopodium album [1]; Chenopodium album, 336 h, read-out: herbicidal effect (herbicidal rate), Chenopodium album): 0%; pest or weed control at 1200 g/ha (Amaranthus viridis [2]; Amaranthus viridis, 336 h, read-out: herbicidal effect (herbicidal rate), Amaranthus viridis): 40%; pest or weed control at 1200 g/ha (Echinochloa crus-galli [3]; Echinochloa crus-galli, 336 h, read-out: herbicidal effect (herbicidal rate), Echinochloa crus-galli): 90%; pest or weed control at 1200 g/ha (southern crabgrass [4]; Digitaria ciliaris, 336 h, read-out: herbicidal effect (herbicidal rate), southern crabgrass): 80%; pest or weed control at 1200 g/ha ([5]; Monochoria vaginalis, read-out: Herbicidal rate (%) Monochoria vaginalis): 100%; pest or weed control at 1200 g/ha ([5]; in Lindernia, Lindernia pyxidaria, read-out: Herbicidal rate (%) Lindernia pyxidaria): 100%; pest or weed control at 1200 g/ha (Scirpus juncoides [6]; in Schoenoplectiella juncoides, 336 h, read-out: Herbicidal rate (%) Scirpus juncoides): 100%; pest or weed control at 1200 g/ha (Echinochloa crus-galli [7]; in Echinochloa crus-galli, 336 h, read-out: Herbicidal rate (%) Echinochloa crus-galli): 100%; pest or weed control at 1200 g/ha (Chenopodium album [8]; Chenopodium album, 336 h, read-out: herbicidal rate, Chenopodium album): 80%; pest or weed control at 1200 g/ha (Amaranthus viridis [9]; Amaranthus viridis, 336 h, read-out: herbicidal rate, Amaranthus viridis): 80%; pest or weed control at 1200 g/ha (Echinochloa crus-galli [10]; Echinochloa crus-galli, 336 h, read-out: herbicidal rate, Echinochloa crus-galli): 90%; pest or weed control at 1200 g/ha (southern crabgrass [11]; Digitaria ciliaris, 336 h, read-out: herbicidal rate, southern crabgrass): 90%; pest or weed control at 1200 g/ha ([12]; Lindernia pyxidaria, read-out: herbicidal rate (%) Lindernia pyxidaria): 60%; pest or weed control at 1200 g/ha ([12]; Monochoria vaginalis, read-out: herbicidal rate (%) Monochoria vaginalis): 90%; pest or weed control at 1200 g/ha (Scirpus juncoides [13]; Schoenoplectiella juncoides, 336 h, read-out: herbicidal rate (%) Scirpus juncoides): 90%; pest or weed control at 1200 g/ha (Echinochloa crus-galli [14]; Echinochloa crus-galli, 336 h, read-out: herbicidal rate (%) Echinochloa crus-galli): 90%
5 | CCC(=O)N(c1ccccc1Cc1c(C)n(CC(C)(C)C)oc1=O)S(=O)(=O)C(F)(F)F [Compound 1-318] | 40% | 40% | 90% | 90% | 90% | 90% | 90% | 90% | 90% | 90% | 90% | 90% | 90% | 90% | 90% | 90% | 
6 | CCC(CC)n1oc(=O)c(Cc2ccccc2N(C(=O)C2CC2)S(=O)(=O)C(F)(F)F)c1C [Compound 1-405] | 40% | 40% | 90% | 90% | 90% | 90% | 90% | 90% | 90% | 90% | 90% | 90% | 90% | 90% | 90% | 90% | 
7 | C=CCn1oc(=O)c(Cc2ccccc2N(S(=O)(=O)C(F)(F)F)S(=O)(=O)C(F)(F)F)c1C [Compound 1-985] | 60% | 60% | 90% | 60% | 100% | 70% | 90% | 90% | 80% | 80% | 70% | 70% | 60% | 60% | 60% | 90% | 
8 | Cc1c(Cc2ccccc2N(C(=O)OCc2ccccc2)S(=O)(=O)C(F)(F)F)c(=O)on1C(C)(C)C [Compound 1-781] | 40% | 40% | 90% | 90% | 90% | 90% | 90% | 90% | 90% | 90% | 90% | 90% | 90% | 90% | 90% | 90% | 
